Laboratory results reported in US9820963B2, “Composition containing lignan compound as active ingredient for preventing or treating cancer” (KOREA RESEARCH INSTITUTE OF BIOSCIENCE AND BIOTECHNOLOGY, priority 2013, dated 2017).
“Also recorded” adds a separate entry of the source.

Experiments:
[1] = tested on: ERKs/RSKs signaling pathway; assay: Western blot of EGF-stimulated cells, ERKs/RSKs signaling pathway; format: cell-based, mouse; settings: for ERK1/2 phosphorylation at Thr202/Tyr204: JB6 Cl41 cells
Protocol: The cultured JB6 Cl41 cells (1×10^6 cells) were aliquoted into a cell culture dish with a diameter of 100 mm and they were cultured overnight. Then, the cells were left for 24 hours in 0.1% FBS-MEM and pretreated with magnolin at concentrations of 15 μM, 30 μM, and 60 μM for 30 minutes, respectively, and after 30 minutes, co-treated with EGF and magnolin.
The proteins were extracted from the cultured JB6 Cl41 cells and the samples containing the proteins were analyzed by 8% to 10% SDS-PAGE, and transferred onto polyvinylidene difluoride (PVDF) membranes. The membranes were cultured in a blocking buffer containing 5% skim milk. Then, Western blot was performed using specific antibodies for phospho-MEK (MAPK (mitogen-activated protein kinase)/ERK kinase), total-MEK, phospho-ERK, total-ERK, phospho-RSK, total-RSK, phospho-Akt, total-Akt, phospho-p38 kinase, total-p38 kinase, phospho-JNK (c-Jun N-terminal kinase), and total-JNK (all the antibodies obtained from Cell Signaling Technology, Beverly, Mass., USA). In particular, β-actin (Santa Cruz, Calif., USA) was used as a control and the Western blot was visualized with an enhanced chemiluminescence detection system (Amersham Biosciences, Piscataway, N.J., USA) using the Chemidoc XRS imager system (Bio-Rad Laboratories, Hercules, Calif., USA).
To confirm whether the action of magnolin, which interrupts phosphorylation at Thr359/Ser363 of RSKs, was selective in MEKs/ERKs signaling pathways or not, the action was compared by conducting an experiment on the phosphorylation of ERKs and RSKs by treatment with PD98059, an MEK1/2 inhibitor. As a result, it was confirmed that PD98059 interrupts ERK1/2 phosphorylation at Thr202/Tyr204.

[2] = tested on: Mouse skin epidermal JB6 Cl41 cells; assay: MTS assay, inhibitory effect of magnolin on cell proliferation; format: cell-based; settings: up to 96 hours, read-out: inhibition of cell proliferation compared with DMSO control
Protocol: Mouse skin epidermal JB6 Cl41 cells were cultured in Dulbeco's Modified Eagle's Medium (DMEM) containing 10% FBS at 37° C. in a 5% CO2 bioreactor. The cells were subcultured at 80% to 90% confluence and the medium was changed every 2 to 3 days.
The cultured JB6 Cl41 cells (1×10^3 cells) were aliquoted into 96-well plates containing 5% FBS-MEM and cultured for 2 hours at 37° C. in a 5% CO2 bioreactor. Then, each well was added with 20 μL of an aqueous solution of the MTS-based Cell Titer 96, and then, further cultured for 1 hour at 37° C. in a 5% CO2 bioreactor. 25 μL of 10% sodium dodeceyl sulfate (SDS) solution was added into each of the wells to stop the reaction. The absorbance at 492 nm was measured to measure the growth of the cells at 0 hour.
While measuring the absorbance at 0 hour, the cells were simultaneously treated with the magnolin samples to final concentrations of 15 μM, 30 μM, and 60 μM, respectively, prepared in Example 5. The cells were cultured for 96 hours while measuring the absorbance at 24 hour intervals. In the experiment, the cell treated with DMSO alone was set as a control.

JB6 Cl41 cells [3] = assay: Cytotoxicity of magnolin; format: cell-based, mouse; settings: 100 μM or higher, 48 hours
Protocol: Additionally, to examine the cytotoxicity of magnolin, the cultured cells (2×10^4 cells) were aliquoted into 96-well plates containing 5% FBS-MEM and cultured overnight. Then, the cells were treated with the magnolin samples to final concentrations of 15 μM, 30 μM, 60 μM, and 100 μM respectively, prepared in the Example 5. The cells were cultured for 48 hours while measuring the absorbance at 24 hour intervals. In the experiment, the cell treated with DMSO alone was set as a control.

JB6 Cl41 cells [4] = assay: Cell cycle distribution by PI flow cytometry, normal culture conditions; format: cell-based, mouse; settings: for distribution in G1/G0 phase: 12 hours (control about 42%)
Protocol: To observe the cell cycle of the cells under normal cell culture conditions, JB6 Cl41 cells were cultured in a complete cell culture medium for 12 hours and treated with magnolin at final concentrations of 30 μM and 60 μM, respectively. After 12 hours, the cells were treated with trypsin, fixed, and treated with 20 μg/mL of PI at 4° C. for 15 minutes. Then, the cell cycle distribution was analyzed using the flow cytometry (BD FACS Calibur™ Flow cytometery, Franklin Lakes, N.J., USA).

JB6 Cl41 cells [5] = assay: EGF-induced cell cycle progression; format: cell-based, mouse; settings: 60 μM or higher, 1 ng/mL EGF, 12 hours
Protocol: Then, the cells were pretreated with magnolin to final concentrations of 15 μM, 30 μM, and 60 μM, respectively, for 30 minutes. Then, under the presence of magnolin, the cells were stimulated with 1 ng/mL of EGF for 12 hours.

ERK1 = ERK1 (Homo sapiens, UniProt P27361); assay: In vitro kinase analysis with active ERK1 and His-RSK2-328-740; format: biochemical
Protocol: (§1) A truncated RSK2 protein containing the amino acid at position 328 to the amino acid at position 740 (His-RSK-328-740) was purified using Ni-NTA agarose beads (Qiagen Korea Ltd., Seoul, Korea) (Left panel on FIG. 13A) and an in vitro-kinase analysis was performed using active ERK and His-RSK2-328-740 proteins. Specifically, in the in vitro-kinase analysis, 20 μL of the purified sample was treated with 20 ng of active ERK1 or ERK2, 100 ng of RSK2, and 100 μM of cold-ATP, and 3.75 μM, 7.5 μM, 15 μM, 30 μM, and 60 μM of magnolin, respectively. Then, the kinase reaction was performed for 30 minutes at 30° C. The reaction was stopped by adding 6×SDS-sample buffer followed by boiling. Upon termination of the reaction, the resultant was visualized by Western blot.
(§2) As the result of the computational docking, it was observed that magnolin forms hydrogen bonds with Lys168 of ERK1 (Left panel on FIG. 13B) and Met108 and Lys54 of ERK2 (Right panel on FIG. 13B), respectively. Further, it was confirmed that magnolin in the active pocket of ERK1 or ERK2 was completely different in molecular structure and binding angle. The docking scores of magnolin at the active pockets of ERK1 and ERK2 were −0.7 and −6.68, respectively. Further, to measure the IC50 value on the activity of ERK1 or ERK2, the in vitro-kinase analysis was performed.

ERK2 [6] = molecular target: T1, ERK2 (Homo sapiens, UniProt P28482); assay: In vitro kinase analysis with active ERK2 and His-RSK2-328-740; format: biochemical
Protocol: as §1, §2

ERK2 [7] = molecular target: T1, ERK2; assay: Magnolin competition analysis using ATP-agarose beads; format: binding; settings: increasing magnolin
Protocol: Then, to confirm whether magnolin was competitive with ATP or not, a magnolin competition analysis was performed using APT-agarose beads. As the result of the experiment, it was confirmed that an increase in magnolin decreased ERK2 that bind to ATP-agarose beads (FIG. 13E).

[8] = tested on: ATF1 and AP-1 transactivation activities; assay: ATF1 and AP-1 phosphorylation, nuclear localization and transactivation (Western blot, luciferase reporter); format: cell-based, mouse
Protocol: 1×10^6 of the cultured JB6 Cl41 cells were cultured in a cell culture dish with a diameter of 100 mm for overnight. The cells were starved and left for 24 hours, and then pretreated with magnolin at concentrations of 15 μM, 30 μM, and 60 μM of for 30 minutes, and then co-treated with […] of EGF and magnolin for 30 minutes. The proteins were extracted from the cells and visualized by Western blot.
On the other hand, the cells were co-transfected with pGAL4-ATF1-expressing plasmids and p5xGal4-luciferase reporter plasmids, and then cultured for 12 hours. The cells were pretreated with magnolin for 30 minutes, and co-treated with EGF and magnolin for 6 hours. Then, the cell culture was stopped and the activity of firefly luciferase was measured using the VIXTOR X3(PerkinElmer).

JB6 Cl41 cells [9] = assay: Anchorage-independent cell transformation assay, EGF-induced; format: cell-based; settings: Mus musculus, JB6 Cl41, 336 h, 10 ng/mL EGF, 14 days
Protocol: JB6 Cl41 cells (8×10^3 cells) present in 1 mL of 0.3% Basal Medium Eagle (BME) agar containing 10% FBS and magnolin in concentrations of 15 μM, 30 μM, and 60 μM, respectively, were exposed to 10 ng/mL of EGF, maintained at 37° C., and cultured in a 5% CO2 bioreactor for 14 days. Then, the number and size of the colonies were counted using an ECLIPSE Ti inverted microscope and the NIS-Elements AR (V. 4.0) computer software program (NIKON Instruments Korea, Seoul, Korea).

[10] = tested on: A549 human lung cancer cells harboring Ras^G12V; assay: Cell proliferation of lung cancer cells; format: cell-based; settings: 15, 30, 60 μM, 96 hours
Protocol: H226 human lung cancer cells (2×10^3 cells) harboring Ras-wt and A549 human lung cancer cells (2×10^3 cells) harboring Ras^G12V, mutant activating factor, were aliquoted into 96-well plates, respectively, and treated with magnolin at concentrations of 15 μM, 30 μM, and 60 μM. The cells were cultured for 96 hours at 24 hour intervals and the cell proliferation was measured.

[11] = tested on: A549 cells having Ras^G12V; assay: Anchorage-independent colony growth in soft agar; format: cell-based, human; settings: 15, 30, 60 μM, 10 days
Protocol: Further, H226 cells (8×10^3 cells) having Ras-wt and A549 cells (8×10^3 cells) having Ras^G12V were cultured in 1 mL of 0.3% DMEM agar containing 10% FBS and 15 μM, 30 μM, and 60 μM of magnolin, respectively, maintained at 37° C., and cultured in a 5% CO2 bioreactor for 10 days. As the result of counting the number and size of the cell colonies using an ECLIPSE Ti inverted microscope and the NIS-Elements AR (V. 4.0) computer software program, it was observed that an anchorage-independent colony growth of A549 cells was inhibited by magnolin.

[12] = tested on: NIH3T3 cells expressing Ras^G12V; assay: Cell proliferation and anchorage-independent colony growth of NIH3T3 cells; format: cell-based
From the text: In order to confirm the experimental results more precisely, NIH3T3 cells stably expressing mock or Ras^G12V were used to perform an additional experiment in the same manner as described above.

[13] = co-treated with EGF and magnolin

T1 sequence (P28482 whole entry): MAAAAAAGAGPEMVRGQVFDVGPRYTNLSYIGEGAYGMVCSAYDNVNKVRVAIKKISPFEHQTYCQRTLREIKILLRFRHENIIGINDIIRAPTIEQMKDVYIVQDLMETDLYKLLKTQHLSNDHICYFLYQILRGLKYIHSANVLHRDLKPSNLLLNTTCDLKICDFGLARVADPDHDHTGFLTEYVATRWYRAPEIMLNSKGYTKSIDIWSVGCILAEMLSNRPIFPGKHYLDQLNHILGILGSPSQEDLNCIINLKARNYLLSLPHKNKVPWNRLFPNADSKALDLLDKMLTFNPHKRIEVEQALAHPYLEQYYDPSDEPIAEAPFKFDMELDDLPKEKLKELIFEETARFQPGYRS
Sequence of ERK1 (P27361 whole entry, species assumed, the tested form may be a part): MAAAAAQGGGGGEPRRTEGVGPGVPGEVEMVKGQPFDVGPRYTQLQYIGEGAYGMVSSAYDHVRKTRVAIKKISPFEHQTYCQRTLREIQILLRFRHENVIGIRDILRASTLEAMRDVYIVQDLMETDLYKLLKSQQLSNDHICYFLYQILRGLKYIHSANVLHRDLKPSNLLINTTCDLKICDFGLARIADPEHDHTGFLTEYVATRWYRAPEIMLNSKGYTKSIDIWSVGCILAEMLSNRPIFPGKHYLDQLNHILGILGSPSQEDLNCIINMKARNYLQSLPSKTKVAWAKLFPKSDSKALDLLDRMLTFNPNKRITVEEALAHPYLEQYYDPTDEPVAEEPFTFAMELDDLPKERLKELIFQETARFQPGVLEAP

With `COc1cccc(-c2cc(=O)c3ccccc3o2)c1N` [PD98059, reference compound] the “phosphorylation at Thr359/Ser363 of RSKs” value ([1]; EGF-stimulated JB6 Cl41 cells) was “inhibited” and the “ERK1/2 phosphorylation at Thr202/Tyr204” value [1] was “interrupts”.
In the case of `COc1ccc([C@H]2OC[C@H]3[C@@H]2CO[C@@H]3c2cc(OC)c(OC)c(OC)c2)cc1OC` [magnolin], the inhibition at 30 µM ([2]; 30 μM) is reported as about 40%, the inhibition at 60 µM ([2]; 60 μM) is reported as about 70% and the cytotoxicity (JB6 Cl41 cells [3]) is reported as “no cytotoxicity was observed”. For the same compound, the “distribution in G2/M cell cycle phase compared to control” value (JB6 Cl41 cells [4]; 30 μM and 60 μM, 12 hours) was “only a very small increase”, the “distribution in G1/G0 phase” value (JB6 Cl41 cells [4]; 30 μM) was “about 55%” and the “distribution in G1/G0 phase” value (JB6 Cl41 cells [4]; 60 μM) was “about 60%”. The “effect of EGF on cell cycle” value (JB6 Cl41 cells [5]) was “almost completely inhibited”, the “phosphorylation at Thr359/Ser363 of RSKs” value ([1]; EGF-stimulated JB6 Cl41 cells) was “interrupting phosphorylation; also recorded: inhibited” and the “phosphorylations of MEK, Akt, p38 kinase, and JNKs” value ([1]; EGF-stimulated JB6 Cl41 cells) was “not to be involved”. The “ERK1/2 phosphorylation at Thr202/Tyr204” value [1] was “does not interrupt the phosphorylation”, the “inhibition of ERK1-mediated RSK2 phosphorylation at Thr359/Ser363 and Thr577” value (ERK1; in vitro kinase reaction, 100 μM ATP, magnolin 3.75 to 60 μM) was “about 90%” and the IC50 (ERK1; in vitro-kinase analysis) was about 87 nM. For the same compound, the IC50 (ERK2 [6]) was 16.5 nM, the “ERK2 binding to ATP-agarose beads” value (ERK2 [7]) was “decreased” and the “EGF-induced ATF1 phosphorylation at Ser63” value ([8]; JB6 Cl41 cells, Western blot) was “inhibited”. For the same compound, the AP-1 transactivation activity [8, 13] was “inhibited”, the “EGF-induced c-Jun phosphorylation at Ser63 and Ser73” value [8, 13] was “inhibited” and the “nuclear phospho-c-Jun increased by EGF stimulation” value [8, 13] was “decreased”. The “nuclear phospho-ATF1 protein level induced by EGF” value ([8]; co-treated with EGF and magnolin, Western blot and immunocytofluorescence) was “decreased”, the “ATF1 transactivation activity increased by EGF stimulation” value ([8]; co-treated with EGF and magnolin, luciferase reporter) was “inhibited” and the inhibition at 30 µM (JB6 Cl41 cells [9]; 30 μM) was about 40%. The inhibition at 60 µM (JB6 Cl41 cells [9]; 60 μM) was about 75%, the “inhibition of cell proliferation in A549 cells compared with H226 cells” value [10] was “more significantly” and the “anchorage-independent colony growth of A549 cells” value [11] was “inhibited”. For the same compound, the anchorage-independent growth [12] was “inhibited” and the “inhibition of cell proliferation compared with NIH3T3 cells expressing mock” value [12] was “more sensitive”.
